Data published in ChEMBL document CHEMBL1137441, “Carbonic anhydrase inhibitors: the inhibition profiles of the human mitochondrial isoforms VA and VB with anions are very different” (Bioorg Med Chem, 2007).

Assays:
[1] = target: Carbonic anhydrase 5A, mitochondrial (Homo sapiens) (UniProt P35218); test: Inhibition of human mitochondrial CA5A by CO2 hydration assay
[2] = target: Carbonic anhydrase 5B, mitochondrial (Homo sapiens) (UniProt Q9Y2D0)
Carbonic anhydrase 5B, mitochondrial (Homo sapiens), sequence (Q9Y2D0 whole entry): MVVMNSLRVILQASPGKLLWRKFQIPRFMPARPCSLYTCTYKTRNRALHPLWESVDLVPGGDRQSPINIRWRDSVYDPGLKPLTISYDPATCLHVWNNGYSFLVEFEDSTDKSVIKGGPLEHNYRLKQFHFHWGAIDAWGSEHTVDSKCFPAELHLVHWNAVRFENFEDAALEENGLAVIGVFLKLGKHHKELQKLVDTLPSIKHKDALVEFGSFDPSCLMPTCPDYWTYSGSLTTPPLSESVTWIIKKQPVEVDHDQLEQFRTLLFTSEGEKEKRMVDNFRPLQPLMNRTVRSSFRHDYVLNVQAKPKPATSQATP
Description: Inhibition of human mitochondrial CA5B by CO2 hydration assay

Carbonic anhydrase 5A, mitochondrial (Homo sapiens), sequence (P35218 whole entry): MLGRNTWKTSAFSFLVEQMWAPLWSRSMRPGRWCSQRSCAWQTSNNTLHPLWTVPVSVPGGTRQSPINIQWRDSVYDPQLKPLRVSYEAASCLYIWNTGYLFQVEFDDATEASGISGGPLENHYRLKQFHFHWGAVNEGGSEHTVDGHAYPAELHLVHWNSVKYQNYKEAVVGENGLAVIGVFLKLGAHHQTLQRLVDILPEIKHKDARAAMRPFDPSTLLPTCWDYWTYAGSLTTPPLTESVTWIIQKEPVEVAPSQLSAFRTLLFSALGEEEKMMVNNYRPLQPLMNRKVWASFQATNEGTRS

Row | SMILES | Kinact [1] | Kinact [2]
1 | O=[As](O)(O)c1ccccc1 | 1.02 mM | 0.082 mM
2 | OB(O)c1ccccc1 | 1.04 mM | 
